Data as given in patent US20260191968A1, “PROTAC DEGRADERS OF MLLT1 AND/OR MLLT3” (DARK BLUE THERAPEUTICS LTD, priority 2024, published 2026).

Molecular target: T1, MLLT1 (Homo sapiens, UniProt Q03111)
T1 construct: host or cells: MV4-11
T1 sequence (Q03111 1-559): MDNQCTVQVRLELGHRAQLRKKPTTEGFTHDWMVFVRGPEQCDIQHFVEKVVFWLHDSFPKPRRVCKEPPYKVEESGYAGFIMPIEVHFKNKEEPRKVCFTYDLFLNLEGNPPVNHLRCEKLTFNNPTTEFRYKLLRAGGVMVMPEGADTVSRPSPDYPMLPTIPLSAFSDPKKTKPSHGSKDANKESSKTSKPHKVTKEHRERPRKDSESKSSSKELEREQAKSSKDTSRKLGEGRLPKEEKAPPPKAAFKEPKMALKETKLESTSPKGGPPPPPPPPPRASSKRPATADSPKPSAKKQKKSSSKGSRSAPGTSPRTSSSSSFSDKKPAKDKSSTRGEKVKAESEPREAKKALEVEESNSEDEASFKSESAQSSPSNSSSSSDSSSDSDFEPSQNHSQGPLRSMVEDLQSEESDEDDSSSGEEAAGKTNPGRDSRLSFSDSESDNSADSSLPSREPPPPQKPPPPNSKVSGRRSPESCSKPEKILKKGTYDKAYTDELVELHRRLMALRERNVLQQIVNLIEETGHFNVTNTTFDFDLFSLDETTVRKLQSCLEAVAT
Experiment: MLLT1 degradation assay in MV4-11 cells (JESS chemiluminescent detection), three concentrations, 24 h
Format: cell-based
Conditions: with respect to DMSO control
Protocol: MLLT1 degradation efficacy of compounds were tested in an automated chemiluminescent detection system (JESS, Cat #004-650). […] 10 mM DMSO stocks were prepared, and cells were treated with three concentrations of test compounds viz. 1000, 100 and 10 nM at a final DMSO concentration of 0.1% and incubated for 24 h at 37° C., 5% CO2. […] Post run, data were analysed using “Compass for SW” software for chemiluminescent detection. The peak area for each band was used for the calculation of MLLT1 degradation with respect to DMSO control. Data is shown as “MLLT1% degradation”.

Row | Structure (SMILES) | MLLT1% Degradation @ 0.01 μM | MLLT1% Degradation @ 0.1 μM | MLLT1% Degradation @ 1 μM
1 | Cc1cc(OC2CCN(c3ccc(C(=O)Nc4cc5[nH]c([C@H]6CCCN6C)cc5cn4)c(F)c3)CC2)ccc1-c1cccc2c1CN(C1CCC(=O)NC1=O)C2=O (stereo partly drawn) [Example 203, 4-(4-(4-(2-(2,6-dioxopiperidin-3-yl)-1-oxoisoindolin-4-yl)-3-methylphenoxy)piperidin-1-yl)-2-fluoro-N-(2-((R)-1-methylpyrrolidin-2-yl)-1H-pyrrolo[3,2-c]pyridin-6-yl)benzamide] | C (Category C: 25% ≤ C < 50% degradation) | C (Category C: 25% ≤ C < 50% degradation) | B (Category B: 50% ≤ B < 75% degradation)
2 | CN1CCC[C@@H]1c1cc2cnc(NC(=O)c3ccc(N4CCN(CC5CCN(c6ccc(C(=O)N[C@H]7CCC(=O)NC7=O)nc6)CC5)CC4)cc3)cc2[nH]1 [Example 181, N—((S)-2,6-dioxopiperidin-3-yl)-5-(4-((4-(4-((2-((R)-1-methylpyrrolidin-2-yl)-1H-pyrrolo[3,2-c]pyridin-6-yl)carbamoyl)phenyl)piperazin-1-yl)methyl)piperidin-1-yl)picolinamide] | D (Category D: D < 25% degradation) | C (Category C: 25% ≤ C < 50% degradation) | B (Category B: 50% ≤ B < 75% degradation)
3 | CN1CCC[C@@H]1c1cc2cnc(NC(=O)c3ccc(N4CC[C@H](CC#Cc5cccc6c5CN(C5CCC(=O)NC5=O)C6=O)C4)nc3)cc2[nH]1 (stereo partly drawn) [Example 187, 6-((3S)-3-(3-(2-(2,6-dioxopiperidin-3-yl)-1-oxoisoindolin-4-yl)prop-2-yn-1-yl)pyrrolidin-1-yl)-N-(2-((R)-1-methylpyrrolidin-2-yl)-1H-pyrrolo[3,2-c]pyridin-6-yl)nicotinamide] | B (Category B: 50% ≤ B < 75% degradation) | B (Category B: 50% ≤ B < 75% degradation) | B (Category B: 50% ≤ B < 75% degradation)
4 | CN1CCC[C@@H]1c1cc2cnc(NC(=O)c3ccc(CCCCC#Cc4cc5c(cc4F)C(=O)N(C4CCC(=O)NC4=O)C5)cc3F)cc2[nH]1 (stereo partly drawn) [Example 114, 4-(6-(2-(2,6-dioxopiperidin-3-yl)-6-fluoro-1-oxoisoindolin-5-yl)hex-5-yn-1-yl)-2-fluoro-N-(2-((R)-1-methylpyrrolidin-2-yl)-1H-pyrrolo[3,2-c]pyridin-6-yl)benzamide] | D (Category D: D < 25% degradation) | C (Category C: 25% ≤ C < 50% degradation) | C (Category C: 25% ≤ C < 50% degradation)
5 | CN1CCC[C@@H]1c1cc2cnc(NC(=O)c3ccc(CCCC#Cc4cc5c(cc4F)C(=O)N(C4CCC(=O)NC4=O)C5)cc3)cc2[nH]1 (stereo partly drawn) [Example 106, 4-(5-(2-(2,6-dioxopiperidin-3-yl)-6-fluoro-1-oxoisoindolin-5-yl)pent-4-yn-1-yl)-N-(2-((R)-1-methylpyrrolidin-2-yl)-1H-pyrrolo[3,2-c]pyridin-6-yl)benzamide] | B (Category B: 50% ≤ B < 75% degradation) | A (Category A: A ≥ 75% degradation) | A (Category A: A ≥ 75% degradation)
6 | CN1CCC[C@@H]1c1cc2cnc(NC(=O)c3cccc(OCCCCCCCC#Cc4cccc5c4C(=O)N(C4CCC(=O)NC4=O)C5=O)c3)cc2[nH]1 (stereo partly drawn) [Example 26, 3-((9-(2-(2,6-dioxopiperidin-3-yl)-1,3-dioxoisoindolin-4-yl)non-8-yn-1-yl)oxy)-N-(2-((R)-1-methylpyrrolidin-2-yl)-1H-pyrrolo[3,2-c]pyridin-6-yl)benzamide] | D (Category D: D < 25% degradation) | D (Category D: D < 25% degradation) | C (Category C: 25% ≤ C < 50% degradation)
7 | CN1CCC[C@@H]1c1cc2cnc(NC(=O)c3cccc(NCC4CCN(c5cccc6c5C(=O)N(C5CCC(=O)NC5=O)C6=O)CC4)c3)cc2[nH]1 (stereo partly drawn) [Example 46, 3-(((1-(2-(2,6-dioxopiperidin-3-yl)-1,3-dioxoisoindolin-4-yl)piperidin-4-yl)methyl)amino)-N-(2-((R)-1-methylpyrrolidin-2-yl)-1H-pyrrolo[3,2-c]pyridin-6-yl)benzamide] |  | B (Category B: 50% ≤ B < 75% degradation) | B (Category B: 50% ≤ B < 75% degradation)
8 | CN1CCC[C@@H]1c1cc2cnc(NC(=O)c3ccc(N4CCC(C#Cc5cccc6c5CN(C5CCC(=O)NC5=O)C6=O)CC4)nn3)cc2[nH]1 (stereo partly drawn) [Example 185, 6-(4-((2-(2,6-dioxopiperidin-3-yl)-1-oxoisoindolin-4-yl)ethynyl)piperidin-1-yl)-N-(2-((R)-1-methylpyrrolidin-2-yl)-1H-pyrrolo[3,2-c]pyridin-6-yl)pyridazine-3-carboxamide] | C (Category C: 25% ≤ C < 50% degradation) | B (Category B: 50% ≤ B < 75% degradation) | B (Category B: 50% ≤ B < 75% degradation)
9 | CN1CCC[C@@H]1c1cc2cnc(NC(=O)c3ccc(OC4CN(CCC5CCN(c6ccc7c(c6)C(=O)N(C6CCC(=O)NC6=O)C7=O)CC5)C4)cc3)cc2[nH]1 (stereo partly drawn) [Example 227, 4-((1-(2-(1-(2-(2,6-dioxopiperidin-3-yl)-1,3-dioxoisoindolin-5-yl)piperidin-4-yl)ethyl)azetidin-3-yl)oxy)-N-(2-((R)-1-methylpyrrolidin-2-yl)-1H-pyrrolo[3,2-c]pyridin-6-yl)benzamide] | D (Category D: D < 25% degradation) | C (Category C: 25% ≤ C < 50% degradation) | C (Category C: 25% ≤ C < 50% degradation)
10 | CN1CCC[C@@H]1c1cc2cnc(NC(=O)c3ccc(N4CCC(C5CCN(c6cccc7c6C(=O)N(C6CCC(=O)NC6=O)C7=O)CC5)CC4)nc3)cc2[nH]1 (stereo partly drawn) [Example 152, 6-(1′-(2-(2,6-dioxopiperidin-3-yl)-1,3-dioxoisoindolin-4-yl)-[4,4′-bipiperidin]-1-yl)-N-(2-((R)-1-methylpyrrolidin-2-yl)-1H-pyrrolo[3,2-c]pyridin-6-yl)nicotinamide] | D (Category D: D < 25% degradation) | B (Category B: 50% ≤ B < 75% degradation) | A (Category A: A ≥ 75% degradation)
11 | CN1CCC[C@@H]1c1cc2cnc(NC(=O)c3cccc(N4CCN(CC5CCN(c6ccc7c(c6)CN(C6CCC(=O)NC6=O)C7=O)CC5)CC4)c3)cc2[nH]1 (stereo partly drawn) [Example 192, 3-(4-((1-(2-(2,6-dioxopiperidin-3-yl)-1-oxoisoindolin-5-yl)piperidin-4-yl)methyl)piperazin-1-yl)-N-(2-((R)-1-methylpyrrolidin-2-yl)-1H-pyrrolo[3,2-c]pyridin-6-yl)benzamide] | B (Category B: 50% ≤ B < 75% degradation) | B (Category B: 50% ≤ B < 75% degradation) | C (Category C: 25% ≤ C < 50% degradation)
12 | CN1CCC[C@@H]1c1cc2cnc(NC(=O)c3ccc(-c4cnn(CCCC#Cc5cccc(C(=O)N[C@H]6CCC(=O)NC6=O)n5)c4)cc3)cc2[nH]1 [Example 62, N—((S)-2,6-dioxopiperidin-3-yl)-6-(5-(4-(4-((2-((R)-1-methylpyrrolidin-2-yl)-1H-pyrrolo[3,2-c]pyridin-6-yl)carbamoyl)phenyl)-1H-pyrazol-1-yl)pent-1-yn-1-yl) picolinamide] | B (Category B: 50% ≤ B < 75% degradation) | A (Category A: A ≥ 75% degradation) | B (Category B: 50% ≤ B < 75% degradation)
13 | CN1CCC[C@@H]1c1[nH]c2cc(NC(=O)c3ccc(CCCCC#Cc4cccc5c4CN(C4CCC(=O)NC4=O)C5=O)nc3)ncc2c1Cl (stereo partly drawn) [Example 71, N-(3-chloro-2-((R)-1-methylpyrrolidin-2-yl)-1H-pyrrolo[3,2-c]pyridin-6-yl)-6-(6-(2-(2,6-dioxopiperidin-3-yl)-1-oxoisoindolin-4-yl)hex-5-yn-1-yl) nicotinamide] | A (Category A: A ≥ 75% degradation) | A (Category A: A ≥ 75% degradation) | B (Category B: 50% ≤ B < 75% degradation)
